Laboratory results as given in patent US8673910B2, “Proteasome inhibitors for selectively inducing apoptosis in cancer cells” (H. Lee Moffitt Cancer Center and Research Institute, priority 2008, dated 2014).

Row | SMILES | melting point
1 | O=C(NS(=O)(=O)c1ccc(NC2=C(Cl)C(=O)c3ccccc3C2=O)cc1)c1ccccc1 [Compound 2c, N-(4-(3-chloro-1,4-dioxo-1,4-dihydronaphthalen-2-ylamino)phenylsulfonyl)benzamide] | 216 to 217 °C
2 | COc1cnc(NS(=O)(=O)c2ccc(NC3=C(Cl)C(=O)c4ccccc4C3=O)cc2)nc1 [Compound 2e, 4-(3-chloro-1,4-dioxo-1,4-dihydronaphthalen-2-ylamino)-N-(5-methoxypyrimidin-2-yl)benzenesulfonamide] | 269 to 271 °C
3 | Cc1cc(C)nc(NS(=O)(=O)c2ccc(NC3=C(Cl)C(=O)c4ccccc4C3=O)cc2)n1 [Compound 2g, 4-(3-chloro-1,4-dioxo-1,4-dihydronaphthalen-2-ylamino)-N-(4,6-dimethylpyrimidin-2-yl)benzenesulfonamide] | 210 °C (dec.)
4 | COc1cc(NS(=O)(=O)c2ccc(NC3=C(Cl)C(=O)c4ccccc4C3=O)cc2)nc(OC)n1 [Compound 2i, 4-(3-chloro-1,4-dioxo-1,4-dihydronaphthalen-2-ylamino)-N-(2,6-dimethoxypyrimidin-4-yl)-benzenesulfonamide] | 220 to 222 °C
5 | Cc1ccnc(NS(=O)(=O)c2ccc(NC3=C(Cl)C(=O)c4ccccc4C3=O)cc2)n1 [Compound 2j, 4-(3-chloro-1,4-dioxo-1,4-dihydronaphthalen-2-ylamino)-N-(4-methylpyrimidin-2-yl)-benzenesulfonamide] | 246 to 248 °C
6 | CC1=C(Nc2ccc(S(=O)(=O)Nc3ccccn3)cc2)C(=O)c2ccccc2C1=O [Compound 2k, 4-(3-methyl-1,4-dioxo-1,4-dihydronaphthalen-2-ylamino)-N-(pyridin-2-yl)benzenesulfonamide] | 220 to 222 °C
7 | CC1=C(Nc2ccc(S(=O)(=O)NC(=O)c3ccccc3)cc2)C(=O)c2ccccc2C1=O [Compound 2l, N-(4-(3-methyl-1,4-dioxo-1,4-dihydronaphthalen-2-ylamino)phenylsulfonyl)benzamide] | 235 to 237 °C
8 | COc1cnc(NS(=O)(=O)c2ccc(NC3=C(C)C(=O)c4ccccc4C3=O)cc2)nc1 [Compound 2m, N-(5-methoxypyrimidin-2-yl)-4-(3-methyl-1,4-dioxo-1,4-dihydronaphthalen-2-ylamino)-benzenesulfonamide] | 215 to 217 °C
9 | COc1cc(NS(=O)(=O)c2ccc(NC3=C(C)C(=O)c4ccccc4C3=O)cc2)nc(OC)n1 [Compound 2n, N-(2,6-dimethoxypyrimidin-4-yl)-4-(3-methyl-1,4-dioxo-1,4-dihydronaphthalen-2-ylamino)-benzenesulfonamide] | 255 to 257 °C
10 | O=C(NS(=O)(=O)c1ccc(NC2=CC(=O)c3ccccc3C2=O)cc1)c1ccccc1 [Compound 2p, N-(4-(1,4-dioxo-1,4-dihydronaphthalen-2-ylamino)phenylsulfonyl)benzamide] | 294 to 296 °C
11 | O=C1C=C(Nc2ccc(S(=O)(=O)Nc3ccccn3)cc2)C(=O)c2ccccc21 [Compound 2r, 4-(1,4-dioxo-1,4-dihydronaphthalen-2-ylamino)-N-(pyridin-2-yl)benzenesulfonamide] | 286 °C (dec.)
12 | CN(C)C1=C(Nc2ccc(S(=O)(=O)Nc3ccccn3)cc2)C(=O)c2ccccc2C1=O [Compound 3a, 4-(3-(dimethylamino)-1,4-dioxo-1,4-dihydronaphthalen-2-ylamino)-N-(pyridin-2-yl)-benzenesulfonamide] | 118 to 120 °C
13 | CN(Cc1ccccc1)C1=C(Nc2ccc(S(=O)(=O)Nc3ccccn3)cc2)C(=O)c2ccccc2C1=O [Compound 3b, 4-(3-(benzyl(methyl)amino)-1,4-dioxo-1,4-dihydronaphthalen-2-ylamino)-N-(pyridin-2-yl)-benzenesulfonamide] | 135 to 140 °C
14 | CN1CCN(C2=C(Nc3ccc(S(=O)(=O)Nc4ccccn4)cc3)C(=O)c3ccccc3C2=O)CC1 [Compound 3c, 4-(3-(4-methylpiperazin-1-yl)-1,4-dioxo-1,4-dihydronaphthalen-2-ylamino)-N-(pyridin-2-yl)-benzenesulfonamide] | 222 to 224 °C
15 | O=C1C(Nc2ccc(S(=O)(=O)Nc3ccccn3)cc2)=C(N2CCOCC2)C(=O)c2ccccc21 [Compound 3e, 4-(3-morpholino-1,4-dioxo-1,4-dihydronaphthalen-2-ylamino)-N-(pyridin-2-yl)benzenesulfonamide] | 220 to 222 °C
16 | CN(C1=C(Cl)C(=O)c2ccccc2C1=O)c1ccc(S(=O)(=O)Nc2ccccn2)cc1 [Compound 6a, 4-((3-chloro-1,4-dioxo-1,4-dihydronaphthalen-2-yl)(methyl)amino)-N-(pyridin-2-yl)benzenesulfonamide] | 152 to 154 °C
17 | CCN(C1=C(Cl)C(=O)c2ccccc2C1=O)c1ccc(S(=O)(=O)Nc2ccccn2)cc1 [Compound 6b, 4-((3-chloro-1,4-dioxo-1,4-dihydronaphthalen-2-yl)(ethyl)amino)-N-(pyridin-2-yl)benzenesulfonamide] | 180 to 182 °C

Row | SMILES | melting point
18 | CCCCN(C1=C(Cl)C(=O)c2ccccc2C1=O)c1ccc(S(=O)(=O)Nc2ccccn2)cc1 [Compound 6c, 4-(butyl(3-chloro-1,4-dioxo-1,4-dihydronaphthalen-2-yl)amino)-N-(pyridin-2-yl)benzenesulfonamide] | 181 to 183 °C
19 | O=C1C(Cl)=C(N(Cc2ccccc2)c2ccc(S(=O)(=O)Nc3ccccn3)cc2)C(=O)c2ccccc21 [Compound 6d, 4-(benzyl(3-chloro-1,4-dioxo-1,4-dihydronaphthalen-2-yl)amino)-N-(pyridin-2-yl)benzenesulfonamide] | 78 to 80 °C
20 | O=C1C(Cl)=C(N(Cc2ccc([N+](=O)[O-])cc2)c2ccc(S(=O)(=O)Nc3ccccn3)cc2)C(=O)c2ccccc21 [Compound 6e, 4-((3-chloro-1,4-dioxo-1,4-dihydronaphthalen-2-yl)(4-nitrobenzyl)amino)-N-(pyridin-2-yl)benzenesulfonamide] | 80 to 82 °C
21 | O=C1C(Cl)=C(N(Cc2ccc3ccccc3c2)c2ccc(S(=O)(=O)Nc3ccccn3)cc2)C(=O)c2ccccc21 [Compound 6f, 4-((3-chloro-1,4-dioxo-1,4-dihydronaphthalen-2-yl)(naphthalen-2-ylmethyl)amino)-N-(pyridin-2-yl)benzenesulfonamide] | 165 to 167 °C
22 | Cc1ccc(CN(C2=C(Cl)C(=O)c3ccccc3C2=O)c2ccc(S(=O)(=O)Nc3ccccn3)cc2)cc1 [Compound 6g, 4-((3-chloro-1,4-dioxo-1,4-dihydronaphthalen-2-yl)(4-methylbenzyl)amino)-N-(pyridin-2-yl)benzenesulfonamide] | 99 to 101 °C
23 | O=C1C(Cl)=C(N(Cc2ccc(C(F)(F)F)cc2)c2ccc(S(=O)(=O)Nc3ccccn3)cc2)C(=O)c2ccccc21 [Compound 6h, 4-((3-chloro-1,4-dioxo-1,4-dihydronaphthalen-2-yl)(4-(trifluoromethyl)benzyl)amino)-N-(pyridin-2-yl)benzenesulfonamide] | 157 to 159 °C
24 | O=C1C(Cl)=C(Nc2ccc(S(=O)(=O)Nc3ccccc3)cc2)C(=O)c2ccccc21 [Compound 13b, 4-(3-chloro-1,4-dioxo-1,4-dihydro-naphthalen-2-ylamino)-N-phenyl-benzenesulfonamide] | 220 to 223 °C
25 | Cc1cccc(NS(=O)(=O)c2ccc(NC3=C(Cl)C(=O)c4ccccc4C3=O)cc2)c1 [Compound 13c, 4-(3-chloro-1,4-dioxo-1,4-dihydro-naphthalen-2-ylamino)-N-m-tolyl-benzenesulfonamide] | 234 to 237 °C
26 | COc1ccccc1NS(=O)(=O)c1ccc(NC2=C(Cl)C(=O)c3ccccc3C2=O)cc1 [Compound 13d, 4-(3-chloro-1,4-dioxo-1,4-dihydro-naphthalen-2-ylamino)-N-(2-methoxy-phenyl)-benzenesulfonamide] | 198 to 201 °C
27 | COc1cccc(NS(=O)(=O)c2ccc(NC3=C(Cl)C(=O)c4ccccc4C3=O)cc2)c1 [Compound 13e, 4-(3-chloro-1,4-dioxo-1,4-dihydro-naphthalen-2-ylamino)-N-(3-methoxy-phenyl)-benzenesulfonamide] | 213 to 216 °C
28 | COc1ccc(NS(=O)(=O)c2ccc(NC3=C(Cl)C(=O)c4ccccc4C3=O)cc2)cc1 [Compound 13f, 4-(3-chloro-1,4-dioxo-1,4-dihydro-naphthalen-2-ylamino)-N-(4-methoxy-phenyl)-benzenesulfonamide] | 233 to 234 °C
29 | Cc1ccc(NS(=O)(=O)c2ccc(NC3=C(Cl)C(=O)c4ccccc4C3=O)cc2)cc1 [Compound 13g, 4-(3-chloro-1,4-dioxo-1,4-dihydro-naphthalen-2-ylamino)-N-p-tolyl-benzenesulfonamide] | 257 to 260 °C
30 | COc1cc(NC2=C(Cl)C(=O)c3ccccc3C2=O)ccc1S(=O)(=O)Nc1ccccc1C [Compound 13h, 4-(3-chloro-1,4-dioxo-1,4-dihydro-naphthalen-2-ylamino)-2-methoxy-N-o-tolyl-benzenesulfonamide] | 197 to 200 °C
31 | COc1cc(NC2=C(Cl)C(=O)c3ccccc3C2=O)ccc1S(=O)(=O)Nc1ccc(C)cc1 [Compound 13i, 4-(3-chloro-1,4-dioxo-1,4-dihydro-naphthalen-2-ylamino)-2-methoxy-N-p-tolyl-benzenesulfonamide] | 186 to 189 °C
32 | COc1ccc(NS(=O)(=O)c2ccc(NC3=C(Cl)C(=O)c4ccccc4C3=O)cc2OC)cc1 [Compound 13j, 4-(3-chloro-1,4-dioxo-1,4-dihydro-naphthalen-2-ylamino)-2-methoxy-N-(4-methoxy-phenyl)-benzenesulfonamide] | 165 to 167 °C
33 | COc1cc(NC2=C(Cl)C(=O)c3ccccc3C2=O)ccc1S(=O)(=O)Nc1cccc(C)c1 [Compound 13k, 4-(3-chloro-1,4-dioxo-1,4-dihydro-naphthalen-2-ylamino)-2-methoxy-N-m-tolyl-benzenesulfonamide] | 264 to 267 °C
34 | N=C(N)NS(=O)(=O)c1ccc(NC2=C(Cl)C(=O)c3ccccc3C2=O)cc1 [YG1-084, N-carbamimidoyl-4-(3-chloro-1,4-dioxo-1,4-dihydronaphthalen-2-ylamino)benzene-sulfonamide] | 294 to 295 °C
